What was measured:
Assay type in all cases: biochemical
Conditions in all cases: 10 μM, ATP near Km
PhKgamma2 = molecular target: T1, PhKgamma2 (Homo sapiens, UniProt P15735); assay: KinaseProfiler PhKgamma2
T1 construct: purchased Millipore, Inc. (KinaseProfiler service)
Source text: (§1) The compound was run in duplicate at a concentration of ATP near the Km for each individual kinase according to Millipore's specifications.

CK1gamma1 = molecular target: T2, CK1gamma1 (Homo sapiens, UniProt Q9HCP0); assay: KinaseProfiler CK1gamma1
T2 construct: purchased Millipore, Inc. (KinaseProfiler service)
Source text: as §1

CK1gamma2 = molecular target: T3, CK1gamma2 (Homo sapiens, UniProt P78368); assay: KinaseProfiler CK1gamma2
T3 construct: purchased Millipore, Inc. (KinaseProfiler service)
Source text: as §1

p38gamma = molecular target: T4, p38gamma (Homo sapiens, UniProt P53778); assay: KinaseProfiler p38gamma
T4 construct: purchased Millipore, Inc. (KinaseProfiler service)
Source text: as §1

MINK = molecular target: T5, MINK (Homo sapiens, UniProt Q8N4C8); assay: KinaseProfiler MINK
T5 construct: purchased Millipore, Inc. (KinaseProfiler service)
Source text: as §1

TAO1 = molecular target: T6, TAO1 (Homo sapiens, UniProt Q7L7X3); assay: KinaseProfiler TAO1
T6 construct: purchased Millipore, Inc. (KinaseProfiler service)
Source text: as §1

Yes = molecular target: T7, Yes (Homo sapiens, UniProt P07947); assay: KinaseProfiler Yes
T7 construct: purchased Millipore, Inc. (KinaseProfiler service)
Source text: as §1

MKNK2 = molecular target: T8, MKNK2 (Homo sapiens, UniProt Q9HBH9); assay: KinaseProfiler MKNK2
T8 construct: purchased Millipore, Inc. (KinaseProfiler service)
Source text: as §1

IGF-1R = molecular target: T9, IGF-1R (Homo sapiens, UniProt P08069); assay: KinaseProfiler IGF-1R
T9 construct: purchased Millipore, Inc. (KinaseProfiler service)
Source text: as §1

KDR = molecular target: T10, KDR (Homo sapiens, UniProt P35968); assay: KinaseProfiler KDR
T10 construct: purchased Millipore, Inc. (KinaseProfiler service)
Source text: as §1

MST1 = molecular target: T11, MST1 (Homo sapiens, UniProt Q13043); assay: KinaseProfiler MST1
T11 construct: purchased Millipore, Inc. (KinaseProfiler service)
Source text: as §1

Axl = molecular target: T12, Axl (Homo sapiens, UniProt P30530); assay: KinaseProfiler Axl
T12 construct: purchased Millipore (KinaseProfiler service)
Source text: as §1

EphA5 = molecular target: T13, EphA5 (Homo sapiens, UniProt P54756); assay: KinaseProfiler EphA5
T13 construct: purchased Millipore, Inc. (KinaseProfiler service)
Source text: as §1

IR = molecular target: T14, IR (Homo sapiens, UniProt P06213); assay: KinaseProfiler IR
T14 construct: purchased Millipore, Inc. (KinaseProfiler service)
Source text: as §1

EphA4 = molecular target: T15, EphA4 (Homo sapiens, UniProt P54764); assay: KinaseProfiler EphA4
T15 construct: purchased Millipore, Inc. (KinaseProfiler service)
Source text: as §1

MELK = molecular target: T16, MELK (Homo sapiens, UniProt Q14680); assay: KinaseProfiler MELK
T16 construct: purchased Millipore, Inc. (KinaseProfiler service)
Source text: as §1

AMPK(A1/B1/G1) = molecular target: T17, AMPK(A1/B1/G1) (Homo sapiens, UniProt Q13131); assay: KinaseProfiler AMPK(A1/B1/G1)
T17 construct: purchased Millipore (KinaseProfiler service)
Source text: as §1

FGFR4 = molecular target: T18, FGFR4 (Homo sapiens, UniProt P22455); assay: KinaseProfiler FGFR4
T18 construct: purchased Millipore, Inc. (KinaseProfiler service)
Source text: as §1

MAPKAP-K2 = molecular target: T19, MAPKAP-K2 (Homo sapiens, UniProt P49137); assay: KinaseProfiler MAPKAP-K2
T19 construct: purchased Millipore, Inc. (KinaseProfiler service)
Source text: as §1

SGK2 = molecular target: T20, SGK2 (Homo sapiens, UniProt Q9HBY8); assay: KinaseProfiler SGK2
T20 construct: purchased Millipore, Inc. (KinaseProfiler service)
Source text: as §1

NEK7 = molecular target: T21, NEK7 (Homo sapiens, UniProt Q8TDX7); assay: KinaseProfiler NEK7
T21 construct: purchased Millipore, Inc. (KinaseProfiler service)
Source text: as §1

TAK1 = molecular target: T22, TAK1 (Homo sapiens, UniProt O43318); assay: KinaseProfiler TAK1
T22 construct: purchased Millipore, Inc. (KinaseProfiler service)
Source text: as §1

STK33 = molecular target: T23, STK33 (Homo sapiens, UniProt Q9BYT3); assay: KinaseProfiler STK33
T23 construct: purchased Millipore, Inc. (KinaseProfiler service)
Source text: as §1

Fyn = molecular target: T24, Fyn (Homo sapiens, UniProt P06241); assay: KinaseProfiler Fyn
T24 construct: purchased Millipore, Inc. (KinaseProfiler service)
Source text: as §1

PTK6 = molecular target: T25, PTK6 (Homo sapiens, UniProt Q13882); assay: KinaseProfiler PTK6
T25 construct: purchased Millipore, Inc. (KinaseProfiler service)
Source text: as §1

HIPK2 = molecular target: T26, HIPK2 (Homo sapiens, UniProt Q9H2X6); assay: KinaseProfiler HIPK2
T26 construct: purchased Millipore, Inc. (KinaseProfiler service)
Source text: as §1

Pim-3 = molecular target: T27, Pim-3 (Homo sapiens, UniProt Q86V86); assay: KinaseProfiler Pim-3
T27 construct: purchased Millipore, Inc. (KinaseProfiler service)
Source text: as §1

LIMK1 = molecular target: T28, LIMK1 (Homo sapiens, UniProt P53667); assay: KinaseProfiler LIMK1
T28 construct: purchased Millipore, Inc. (KinaseProfiler service)
Source text: as §1

WNK2 = molecular target: T29, WNK2 (Homo sapiens, UniProt Q9Y3S1); assay: KinaseProfiler WNK2
T29 construct: purchased Millipore, Inc. (KinaseProfiler service)
Source text: as §1

FGFR2 = molecular target: T30, FGFR2 (Homo sapiens, UniProt P21802); assay: KinaseProfiler FGFR2
T30 construct: purchased Millipore, Inc. (KinaseProfiler service)
Source text: as §1

MYLK = molecular target: T31, MYLK (Homo sapiens, UniProt Q15746); assay: KinaseProfiler MYLK
T31 construct: purchased Millipore, Inc. (KinaseProfiler service)
Source text: as §1

NLK = molecular target: T32, NLK (Homo sapiens, UniProt Q9UBE8); assay: KinaseProfiler NLK
T32 construct: purchased Millipore, Inc. (KinaseProfiler service)
Source text: as §1

AKT3 = molecular target: T33, AKT3 (Homo sapiens, UniProt Q9Y243); assay: KinaseProfiler AKT3
T33 construct: purchased Millipore (KinaseProfiler service)
Source text: as §1

AURKA = molecular target: T34, AURKA (Homo sapiens, UniProt O14965); assay: KinaseProfiler AURKA
T34 construct: purchased Millipore (KinaseProfiler service)
Source text: as §1

RIPK2 = molecular target: T35, RIPK2 (Homo sapiens, UniProt O43353); assay: KinaseProfiler RIPK2
T35 construct: purchased Millipore, Inc. (KinaseProfiler service)
Source text: as §1

mTOR = molecular target: T36, mTOR (Homo sapiens, UniProt P42345); assay: KinaseProfiler mTOR
T36 construct: purchased Millipore, Inc. (KinaseProfiler service)
Source text: as §1

Plk3 = molecular target: T37, Plk3 (Homo sapiens, UniProt Q9H4B4); assay: KinaseProfiler Plk3
T37 construct: purchased Millipore, Inc. (KinaseProfiler service)
Source text: as §1

CDK6/cyclinD3 = molecular target: T38, CDK6/cyclinD3 (Homo sapiens, UniProt Q00534); assay: KinaseProfiler CDK6/cyclinD3
T38 construct: purchased Millipore, Inc. (KinaseProfiler service)
Source text: as §1

IKKalpha = molecular target: T39, IKKalpha (Homo sapiens, UniProt O15111); assay: KinaseProfiler IKKalpha
T39 construct: purchased Millipore, Inc. (KinaseProfiler service)
Source text: as §1

PKCgamma = molecular target: T40, PKCgamma (Homo sapiens, UniProt P05129); assay: KinaseProfiler PKCgamma
T40 construct: purchased Millipore, Inc. (KinaseProfiler service)
Source text: as §1

PRKG1beta = molecular target: T41, PRKG1beta (Homo sapiens, UniProt Q13976); assay: KinaseProfiler PRKG1beta
T41 construct: purchased Millipore, Inc. (KinaseProfiler service)
Source text: as §1

Rsk3 = molecular target: T42, Rsk3 (Homo sapiens, UniProt Q15349); assay: KinaseProfiler Rsk3
T42 construct: purchased Millipore, Inc. (KinaseProfiler service)
Source text: as §1

Fms = molecular target: T43, Fms (Homo sapiens, UniProt P07333); assay: KinaseProfiler Fms
T43 construct: purchased Millipore, Inc. (KinaseProfiler service)
Source text: as §1

T2 sequence (Q9HCP0 whole entry): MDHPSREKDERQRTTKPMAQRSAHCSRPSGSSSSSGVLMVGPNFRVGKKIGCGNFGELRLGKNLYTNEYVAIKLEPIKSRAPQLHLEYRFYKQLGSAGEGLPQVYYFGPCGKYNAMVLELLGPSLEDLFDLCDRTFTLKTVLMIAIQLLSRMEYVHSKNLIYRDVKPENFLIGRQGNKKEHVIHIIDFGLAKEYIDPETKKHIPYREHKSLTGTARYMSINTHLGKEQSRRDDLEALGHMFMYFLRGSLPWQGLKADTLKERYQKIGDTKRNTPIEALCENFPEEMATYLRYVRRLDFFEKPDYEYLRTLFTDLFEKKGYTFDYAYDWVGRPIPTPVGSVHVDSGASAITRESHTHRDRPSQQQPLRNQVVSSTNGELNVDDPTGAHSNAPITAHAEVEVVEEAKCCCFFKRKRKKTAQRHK
T8 sequence (Q9HBH9 whole entry): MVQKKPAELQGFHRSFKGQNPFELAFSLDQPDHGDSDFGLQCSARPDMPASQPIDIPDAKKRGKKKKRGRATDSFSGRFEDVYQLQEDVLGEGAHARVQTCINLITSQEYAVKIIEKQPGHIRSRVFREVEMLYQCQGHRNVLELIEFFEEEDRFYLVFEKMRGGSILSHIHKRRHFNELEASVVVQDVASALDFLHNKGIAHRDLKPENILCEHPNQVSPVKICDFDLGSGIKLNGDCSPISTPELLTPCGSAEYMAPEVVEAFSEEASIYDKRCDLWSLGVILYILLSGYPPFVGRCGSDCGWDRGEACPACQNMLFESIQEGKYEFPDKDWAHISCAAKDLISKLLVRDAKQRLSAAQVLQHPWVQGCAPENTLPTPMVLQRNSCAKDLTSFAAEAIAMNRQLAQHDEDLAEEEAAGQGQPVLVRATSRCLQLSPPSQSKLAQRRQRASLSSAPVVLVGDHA
T4 sequence (P53778 whole entry): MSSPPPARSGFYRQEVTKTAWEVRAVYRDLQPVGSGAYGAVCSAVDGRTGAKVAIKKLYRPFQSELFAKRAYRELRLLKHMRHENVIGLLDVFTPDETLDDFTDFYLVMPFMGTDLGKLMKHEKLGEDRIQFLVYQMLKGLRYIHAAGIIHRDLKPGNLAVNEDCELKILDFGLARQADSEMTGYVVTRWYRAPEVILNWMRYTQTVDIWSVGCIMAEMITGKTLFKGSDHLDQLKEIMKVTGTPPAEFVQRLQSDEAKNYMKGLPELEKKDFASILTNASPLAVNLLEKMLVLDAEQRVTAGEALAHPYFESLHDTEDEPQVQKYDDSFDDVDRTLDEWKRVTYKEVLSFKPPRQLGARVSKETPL
T22 sequence (O43318 1-303 limits assumed): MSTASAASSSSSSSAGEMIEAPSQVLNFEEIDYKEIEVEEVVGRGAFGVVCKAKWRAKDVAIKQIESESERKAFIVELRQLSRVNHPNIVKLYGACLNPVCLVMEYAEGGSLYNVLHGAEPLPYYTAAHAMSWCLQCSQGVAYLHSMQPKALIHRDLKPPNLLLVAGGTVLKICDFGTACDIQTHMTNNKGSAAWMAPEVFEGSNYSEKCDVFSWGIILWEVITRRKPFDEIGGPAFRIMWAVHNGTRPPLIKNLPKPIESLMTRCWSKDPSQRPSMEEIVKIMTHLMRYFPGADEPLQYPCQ
T10 sequence (P35968 20-1356): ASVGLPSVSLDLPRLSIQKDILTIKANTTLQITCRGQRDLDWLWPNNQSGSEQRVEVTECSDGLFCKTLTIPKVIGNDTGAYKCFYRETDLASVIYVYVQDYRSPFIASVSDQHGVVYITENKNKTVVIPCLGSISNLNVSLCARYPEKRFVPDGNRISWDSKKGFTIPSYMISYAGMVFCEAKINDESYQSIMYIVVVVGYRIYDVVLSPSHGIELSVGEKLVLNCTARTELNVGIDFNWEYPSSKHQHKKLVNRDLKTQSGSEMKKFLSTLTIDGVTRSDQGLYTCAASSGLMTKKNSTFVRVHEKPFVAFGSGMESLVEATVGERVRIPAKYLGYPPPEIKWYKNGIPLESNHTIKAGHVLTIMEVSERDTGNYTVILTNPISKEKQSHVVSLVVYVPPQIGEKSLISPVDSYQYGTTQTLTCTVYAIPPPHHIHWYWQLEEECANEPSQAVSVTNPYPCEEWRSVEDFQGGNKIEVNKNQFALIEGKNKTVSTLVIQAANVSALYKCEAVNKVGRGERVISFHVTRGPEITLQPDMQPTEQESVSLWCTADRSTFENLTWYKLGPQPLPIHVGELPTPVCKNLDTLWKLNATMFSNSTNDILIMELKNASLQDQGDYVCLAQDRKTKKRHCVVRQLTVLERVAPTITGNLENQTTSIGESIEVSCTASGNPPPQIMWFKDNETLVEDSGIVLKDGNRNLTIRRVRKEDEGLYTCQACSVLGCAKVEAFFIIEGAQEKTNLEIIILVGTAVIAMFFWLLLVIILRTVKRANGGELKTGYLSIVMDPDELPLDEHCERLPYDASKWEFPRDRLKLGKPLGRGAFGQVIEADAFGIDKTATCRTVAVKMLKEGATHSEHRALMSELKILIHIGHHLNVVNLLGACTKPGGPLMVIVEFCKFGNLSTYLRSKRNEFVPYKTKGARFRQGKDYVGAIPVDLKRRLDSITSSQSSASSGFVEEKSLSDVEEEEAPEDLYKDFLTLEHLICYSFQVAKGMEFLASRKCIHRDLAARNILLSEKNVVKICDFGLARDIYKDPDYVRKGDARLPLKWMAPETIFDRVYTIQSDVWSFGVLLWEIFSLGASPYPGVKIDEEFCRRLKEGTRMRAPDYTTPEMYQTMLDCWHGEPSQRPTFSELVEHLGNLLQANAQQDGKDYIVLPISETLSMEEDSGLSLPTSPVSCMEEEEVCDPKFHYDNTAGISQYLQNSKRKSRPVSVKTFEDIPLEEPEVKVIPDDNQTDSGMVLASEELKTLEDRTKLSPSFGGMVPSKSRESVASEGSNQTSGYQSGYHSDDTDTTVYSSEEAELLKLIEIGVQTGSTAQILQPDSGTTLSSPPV
T41 sequence (Q13976 1-686 isoform Q13976-2): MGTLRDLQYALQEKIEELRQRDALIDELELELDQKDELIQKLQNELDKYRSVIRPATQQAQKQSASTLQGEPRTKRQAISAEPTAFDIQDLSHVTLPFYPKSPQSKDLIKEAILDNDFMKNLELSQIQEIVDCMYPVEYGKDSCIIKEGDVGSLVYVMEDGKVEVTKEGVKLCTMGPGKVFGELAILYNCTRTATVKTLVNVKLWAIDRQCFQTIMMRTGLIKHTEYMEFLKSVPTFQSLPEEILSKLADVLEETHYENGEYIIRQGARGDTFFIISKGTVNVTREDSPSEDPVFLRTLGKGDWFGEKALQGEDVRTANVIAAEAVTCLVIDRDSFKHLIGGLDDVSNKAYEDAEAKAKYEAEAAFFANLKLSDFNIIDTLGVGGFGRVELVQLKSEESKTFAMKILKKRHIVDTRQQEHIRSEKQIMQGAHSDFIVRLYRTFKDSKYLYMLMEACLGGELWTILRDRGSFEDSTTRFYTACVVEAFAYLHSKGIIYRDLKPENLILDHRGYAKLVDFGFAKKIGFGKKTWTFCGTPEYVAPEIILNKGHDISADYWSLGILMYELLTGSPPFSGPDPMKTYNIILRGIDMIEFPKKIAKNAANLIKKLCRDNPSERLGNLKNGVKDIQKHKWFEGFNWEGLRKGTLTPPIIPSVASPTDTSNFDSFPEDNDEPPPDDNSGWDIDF
T38 sequence (Q00534 whole entry): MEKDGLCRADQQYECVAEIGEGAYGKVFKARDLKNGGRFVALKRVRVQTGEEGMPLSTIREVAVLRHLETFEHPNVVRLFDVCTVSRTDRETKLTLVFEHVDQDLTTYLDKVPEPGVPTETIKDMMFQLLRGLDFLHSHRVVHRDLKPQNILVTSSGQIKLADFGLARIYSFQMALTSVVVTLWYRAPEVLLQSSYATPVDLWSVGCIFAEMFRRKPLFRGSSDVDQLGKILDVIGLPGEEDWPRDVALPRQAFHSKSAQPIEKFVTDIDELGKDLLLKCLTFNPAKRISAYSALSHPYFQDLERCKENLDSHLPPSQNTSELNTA
T38 sequence (P30281 whole entry partner): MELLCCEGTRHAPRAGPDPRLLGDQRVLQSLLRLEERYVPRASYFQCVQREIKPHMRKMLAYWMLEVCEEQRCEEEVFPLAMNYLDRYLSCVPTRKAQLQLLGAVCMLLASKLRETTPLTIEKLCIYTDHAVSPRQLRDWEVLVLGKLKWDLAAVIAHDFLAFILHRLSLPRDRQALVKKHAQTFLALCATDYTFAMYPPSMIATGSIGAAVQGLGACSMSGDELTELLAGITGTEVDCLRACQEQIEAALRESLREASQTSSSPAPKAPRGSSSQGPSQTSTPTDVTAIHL
T30 sequence (P21802 22-821): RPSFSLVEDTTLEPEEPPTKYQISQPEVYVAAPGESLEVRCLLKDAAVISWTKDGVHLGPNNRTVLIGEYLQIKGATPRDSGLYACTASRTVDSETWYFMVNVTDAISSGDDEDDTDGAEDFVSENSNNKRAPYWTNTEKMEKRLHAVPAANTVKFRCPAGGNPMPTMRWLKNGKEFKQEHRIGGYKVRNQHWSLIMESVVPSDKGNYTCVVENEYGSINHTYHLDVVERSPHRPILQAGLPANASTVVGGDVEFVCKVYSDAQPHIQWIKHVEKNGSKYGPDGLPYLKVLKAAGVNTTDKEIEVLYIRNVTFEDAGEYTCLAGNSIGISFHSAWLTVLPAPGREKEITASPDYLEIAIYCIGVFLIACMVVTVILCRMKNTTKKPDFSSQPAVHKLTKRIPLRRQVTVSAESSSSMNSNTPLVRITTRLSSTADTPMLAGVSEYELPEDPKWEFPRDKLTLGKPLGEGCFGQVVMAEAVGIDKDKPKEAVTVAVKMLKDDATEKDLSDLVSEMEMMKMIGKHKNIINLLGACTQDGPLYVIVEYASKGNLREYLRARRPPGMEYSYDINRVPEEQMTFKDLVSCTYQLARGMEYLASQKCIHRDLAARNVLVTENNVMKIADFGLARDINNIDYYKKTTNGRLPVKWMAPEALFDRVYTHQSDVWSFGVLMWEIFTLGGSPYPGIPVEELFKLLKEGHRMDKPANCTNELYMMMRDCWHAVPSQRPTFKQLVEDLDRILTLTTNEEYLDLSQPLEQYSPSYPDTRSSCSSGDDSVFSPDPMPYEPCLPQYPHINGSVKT

## Cc1c(-c2cnn(C)c2)nn(-c2ccccc2)c1NC(=O)Nc1cc(C(F)(F)F)nn1-c1ccccc1 [Example 3, 1-(1′,4-dimethyl-1-phenyl-1H,1′H-[3,4′-bipyrazol]-5-yl)-3-(1-phenyl-3-(trifluoromethyl)-1H-pyrazol-5-yl)urea]
PhKgamma2
  Avg POC: 115.5 POC
CK1gamma1
  Avg POC: 112 POC
CK1gamma2
  Avg POC: 109 POC
p38gamma
  Avg POC: 114.5 POC
MINK
  Avg POC: 105 POC
TAO1
  Avg POC: 119 POC
Yes
  Avg POC: 114 POC
MKNK2
  Avg POC: 99 POC
IGF-1R
  Avg POC: 74.5 POC
KDR
  Avg POC: 115.5 POC
MST1
  Avg POC: 92.5 POC
Axl
  Avg POC: 117 POC
EphA5
  Avg POC: 116 POC
IR
  Avg POC: 90 POC
EphA4
  Avg POC: 106.5 POC
MELK
  Avg POC: 115 POC
AMPK(A1/B1/G1)
  Avg POC: 149.5 POC
FGFR4
  Avg POC: 174.5 POC
MAPKAP-K2
  Avg POC: 142.5 POC
SGK2
  Avg POC: 159.5 POC
NEK7
  Avg POC: 118 POC
TAK1
  Avg POC: 94 POC
STK33
  Avg POC: 107.5 POC
Fyn
  Avg POC: 110 POC
PTK6
  Avg POC: 110 POC
HIPK2
  Avg POC: 101.5 POC
Pim-3
  Avg POC: 107.5 POC
LIMK1
  Avg POC: 92 POC
WNK2
  Avg POC: 120 POC
FGFR2
  Avg POC: 110 POC
MYLK
  Avg POC: 122 POC
NLK
  Avg POC: 116.5 POC
AKT3
  Avg POC: 99 POC
AURKA
  Avg POC: 121 POC
RIPK2
  Avg POC: 96.5 POC
mTOR
  Avg POC: 78.5 POC
Plk3
  Avg POC: 115 POC
CDK6/cyclinD3
  Avg POC: 107.5 POC
IKKalpha
  Avg POC: 127 POC
PKCgamma
  Avg POC: 100 POC
PRKG1beta
  Avg POC: 98 POC
Rsk3
  Avg POC: 104.5 POC
Fms
  Avg POC: 91.5 POC

Reference: patent publication US9809578B2, “Pyrazolyl urea, thiourea, guanidine and cyanoguanidine compounds as trkA kinase inhibitors” (Array BioPharma Inc., priority 2012, dated 2017)
